# From EP1210336B1, “SUBSTITUTED BENZIMIDAZOLES AS NON-NUCLEOSIDE INHIBITORS OF REVERSE TRANSCRIPTASE” (THE UNITED STATES OF AMERICA, as represented by the …, priority 1999, dated 2001)
# Like-named read-outs stand apart in the source and are kept apart here.
# What was measured:
# WT virus (NL4-3) = test: microbe, parasite or virus in culture; assay type: cell-based, HIV-1; details: Human immunodeficiency virus 1, NL43, CEM-SS, read-out: EC50
# How it was run: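 CEM-SS cells (5 x 10^3/well) infected with HIV-1 at an MOI giving complete killing by day 6 (e.g., 0.01-0.05), with serial half-log compound dilutions in triplicate. After 6 days at 37°C, viability read by XTT reduction at 450 nm. CIC50 derived from protection against cytopathic killing.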
# HIV-1 WT RT = biological target: T1, HIV-1 WT RT (Human immunodeficiency virus type 1 group M subtype B, UniProt P03366); test: biochemical; details: for IC50: read-out: IC50
# T1 construct: purified RT protein (0.015 mg/mL) was incubated in a 100 µL reaction mixture
# HIV-1 variant L74V = test: Cytopathic cell killing assay, cross-resistance profile, infected MT-4 cells; assay type: cell-based; details: Human immunodeficiency virus 1, MT4, Table 8; isolate 1.74V
# From the text: (§1) The various HIV isolates tested in the Figures are those corresponding to wild-type virus (NL4-3) and the other strains listed by their RT mutations. The three 4xAZT isolates included in the Figures represent AZT drug-resistant variants. For example, the 4xAZT/L100I isolate has five mutations: four mutations confer increased resistance to AZT, and the other mutation is located within the NNRTI binding pocket. TZB and nevir. (nevirapine) are two well-known NNRTIs, included in this experiment for comparison purposes. […]
# (§2) In this Example, the antiviral and cellular toxicity of NNRTIs was investigated, using the cytopathic cell killing assay described by Yang (Yang et al., "Characteristics of a Group of Non-nucleoside Reverse Transcriptase Inhibitors with Structural Diversity and Potent Anti-Human Immunodeficiency Virus Activity," Leukemia 9:S75-S85 [1995]). Briefly, in this method cells (e.g., the CEM-SS cell line, available from the NIAID AIDS Research and Reference Program [ARRRP]) were seeded at a density of 5 x 10^3 cells/well, into the wells of a 96-well microtiter plate. The cells were then infected with HIV virus (either mutant or WT), at a multiplicity of infection (MOI) previously determined to provide complete cell killing by 6 days of culture post-infection (e.g., MOI of 0.01-0.05). Each of the HIV isolates was pre-titered to induce equivalent levels of infection based on cell killing or virus production, prior to their use in these assays. A range of test compound concentrations was added to the wells in triplicate (e.g., serial half-log dilutions) to evaluate inhibition of HIV infection. Controls for each assay included drug controls (drug colorimetric control wells), drug cytotoxicity control wells (cells with drug), virus control wells (cells with virus), and cell viability controls (cells only). Positive control drugs (e.g., AZT and ddC) were also run in parallel.
# (§3) After six days of incubation at 37°C, cell viability was determined spectrophotometrically at 450 nm for each well, using the metabolic reduction of XTT to a soluble colored formazan. (See, Gartner and Popovic, "Virus Isolation and Production, in Aldovini and Walker (eds.), Techniques in HIV Research, Stockton Press, NY, pp. […] [1991]; and Nara and Fischinger, "Quantitative Infectivity Assay for HIV-1 and HIV-2," Nature 332:469-470 [1988]).
# (§4) The in vitro therapeutic index (TI50) was defined as the fold-difference between the EC50 and IC50. The results for the various compounds are included in Figures 8 and 19.
# HIV-1 variant K103N = test: as above; assay type: cell-based; details: for EC50: isolate K103N
# From the text: as §1, §2, §3, §4
# HIV-1 variant Y188H = test: as above; assay type: cell-based; details: Human immunodeficiency virus 1, MT4
# From the text: as §1, §2, §3, §4
# HIV-1 variant V179D = test: as above; assay type: cell-based; details: Human immunodeficiency virus 1, MT4, Table 8; isolate V179D
# From the text: as §1, §2, §3, §4
# HIV-1 variant L100I = test: as above; assay type: cell-based
# From the text: as §1, §2, §3, §4
# HIV-1 variant V106A = test: as above; assay type: cell-based; details: Human immunodeficiency virus 1, MT4, Table 8; isolate V 106A
# From the text: as §1, §2, §3, §4
# HIV-1 variant V108I = test: as above; assay type: cell-based
# From the text: as §1, §2, §3, §4
# HIV-1 variant Y188C = test: as above; assay type: cell-based; details: Human immunodeficiency virus 1, MT4, Table 8; isolate Y 188C
# From the text: as §1, §2, §3, §4
# HIV-1 variant Y181C = test: as above; assay type: cell-based; details: Human immunodeficiency virus 1, MT4, Table 10 (values in µM); isolate Y181C
# From the text: as §1, §2, §3, §4
# HIV-1 variant A98G = test: as above; assay type: cell-based; details: Human immunodeficiency virus 1, MT4, Table 8; isolate A9SG
# From the text: as §1, §2, §3, §4
# HIV-1 variant K101E = test: as above; assay type: cell-based; details: isolate K101E
# From the text: as §1, §2, §3, §4
# HIV-1 variant M184l = test: as above; assay type: cell-based; details: Human immunodeficiency virus 1, MT4
# From the text: as §1, §2, §3, §4
# HIV-1 isolate 4xAZT = test: as above; assay type: cell-based; details: Human immunodeficiency virus 1, MT4, Table 8; isolate 4XAZT
# From the text: as §1, §2, §3, §4
# NL4-3 (WT) = test: as above; assay type: cell-based, HIV-1
# From the text: as §1, §2, §3, §4
# [1] = Human immunodeficiency virus 1, MT4, Table 8
# [2] = Human immunodeficiency virus 1, MT4, Table 10 (values in µM)
smiles,measurement,setting,value
"COc1cccc2c1nc(-c1c(F)cccc1F)n2Cc1c(F)cccc1F [compound 44, 1-(2,6-difluorobenzyl)-2-(2,6-difluorophenyl)-4-methoxylbenzimidazole]",EC50,"WT virus (NL4-3); Table 7, concentration reducing cell killing or virus production by 50%, HIV-1 WT",0.0046 µM
same,EC50,"WT virus (NL4-3); Table 11, CEMSS/NL4-3, NRVC = reduction in viral CPE not seen (footnote)",0.06 µM
same,EC50,"WT virus (NL4-3); cytopathic cell killing assay, HIV-1 WT",0.0046 µM
same,IC50,HIV-1 WT RT; HIV-1 WT RT,0.0073 µM
same,IC50,"HIV-1 WT RT; Table 7, HIV-1 WT RT",0.0073 µM
same,inhibition at 1 µM,"HIV-1 WT RT; Table 7, WT HIV-1 RT, 1 µM drug, read-out: %inhibn (1µM)",85%
same,IC50,"HIV-1 WT RT; Table 11, WT RT",0.0073 µM
same,IC50,HIV-1 WT RT; WT RT,0.0073 µM
same,EC50,HIV-1 variant L74V,0.08 µM
same,EC50,HIV-1 variant K103N; [1],> 20 µM
same,EC50,HIV-1 variant K103N; [2],> 50 µM
same,activity against the K103N mutation / isolate,"HIV-1 variant K103N; result in words, cytopathic cell killing assay",failed to show any activity
same,EC50,HIV-1 variant Y188H,0.26 µM
same,EC50,HIV-1 variant V179D,0.2 µM
same,EC50,"HIV-1 variant L100I; Human immunodeficiency virus 1, MT4, Table 8, isolate 1.1001",0.1 µM
same,EC50,"HIV-1 variant L100I; Human immunodeficiency virus 1, MT4, Table 10 (values in µM), isolate L1001",0.16 µM
same,EC50,HIV-1 variant V106A,1.4 µM
same,EC50,"HIV-1 variant V108I; Human immunodeficiency virus 1, MT4, Table 8, isolate V1081",2.5 µM
same,EC50,"HIV-1 variant V108I; Human immunodeficiency virus 1, MT4, Table 10 (values in µM), isolate V108l",2.82 µM
same,EC50,HIV-1 variant Y188C,0.3 µM
same,EC50,HIV-1 variant Y181C,0.26 µM
same,EC50,HIV-1 variant A98G,0.3 µM
same,EC50,HIV-1 variant K101E; [1],3.3 µM
same,EC50,HIV-1 variant K101E; [2],2.82 µM
same,EC50,HIV-1 variant M184l,0.16 µM
same,EC50,HIV-1 isolate 4xAZT,6 µM
same,EC50,"NL4-3 (WT); Human immunodeficiency virus 1, NL43, MT4, Table 8, isolate N1.43",0.06 µM
same,EC50,"NL4-3 (WT); Human immunodeficiency virus 1, NL43, MT4, Table 10 (values in µM), isolate NL4-3 (WT)",0.165 µM
